Consider 97 compounds from ChEMBL document CHEMBL3507680, “University of Dundee, Gates Library screen for HepG2 cell viability”.

This data set can be described thus: Human HepG2 cell viability assay in 384 well format. In kind it is toxicity, cell-based. More on the design: dose 125 nL, time 70.5 hour; cytotoxicity at 70.5 h: concentration not given beside the values. The following applies: HepG2 cells, read-out: Inhibition.

Take `O=C(NC1CCCNC1=O)c1ccc2nc(-c3ccc(F)cc3)cn2c1` (configuration not stated): the cytotoxicity at 70.5 h is 15%. As for `CS(=O)(=O)N1CCCn2nc(CNc3ncccn3)cc2C1`, the cytotoxicity at 70.5 h is -1.06%. Under `CCc1nc(CN2CC[C@@](O)(CCOC)[C@H](C)C2)cs1` stands 17.7%; under `Cc1csc2c(N3CCC(NCCCC4CCOC4)CC3)ncnc12` (configuration not stated), 30.5%; under `CN(C)c1ccc(CN2CCN(c3ccc(C#N)cc3)C(=O)C2)cn1`, -7.99%. Take `CNc1ncc(CN(C)Cc2cc(O)c3cc(F)ccc3n2)cn1`: the cytotoxicity at 70.5 h was -8.18%. For `O=C1CN(C(=O)c2cc(-c3ccco3)nc3c(Cl)cccc23)CCN1`, the cytotoxicity at 70.5 h came out at 9.84%. The figure for `CCc1ocnc1C(=O)N1CCOC(CCCC(C)C)C1` (configuration not stated) is -12.3%.

With `CCc1nnc(CN(C)Cc2nc(-c3ccccc3Cl)oc2C)o1`, the cytotoxicity at 70.5 h is -3.53%. Under `CN(Cc1nncn1C)c1nccc(N2CCC(O)CC2)n1` stands -4.03%.

`Cc1cc(N2CCCN(C(=O)CSCC3CC3)CC2)ccn1`: the cytotoxicity at 70.5 h was -17.7%. The figure for `CN(Cc1ccoc1)c1ccc(-c2nccn2C)nn1` is 26.2%; for `C/C=C(\C)CN1C[C@H](NC(=O)CCOC)[C@@H](c2ccc(C)o2)C1` it is -18%. The figure for `CC(C)n1cnnc1CN(C)C(=O)CCn1cnc2ccccc2c1=O` is -17.5%; for `CCC1(C(=O)O)CCCN(CCOCc2ccccc2)C1` (configuration not stated) it is -9.39%.

Regarding `CCN(Cc1noc(CC(C)C)n1)C[C@]1(O)CCCN2CCCC[C@@H]21`, the cytotoxicity at 70.5 h was -11.7%. For the compound `CC(NC(=O)CCCc1ccc(Cl)cc1)c1n[nH]c(=O)[nH]1` (configuration not stated), the cytotoxicity at 70.5 h is -0.585%. On to `COCc1nc(CN2CC(Cc3ccccc3)CC2=O)no1` (configuration not stated), for which the cytotoxicity at 70.5 h was -8.93%. The figure for `CCOC(=O)N1CCN(c2nc(C)ncc2CC)CC1` is 1.02%; for `Cc1cccc(C(=O)N2CCCCC2c2nc3cc(F)ccc3[nH]2)n1` (configuration not stated) it is -11.8%; for `Cc1ncc(CC(=O)N2C[C@@H]3CC[C@H](C2)N(CC2CCC2)C3)c(=O)[nH]1` it is -17.8%. The figure for `CCO[C@H]1C[C@@H](O)C12CCN(C1CCN(c3ccccc3C)CC1)CC2` is 3.61%. Under `Cc1cccc(CN2CCN(c3ncnc4[nH]ccc34)CC2CCO)n1` (configuration not stated) stands -3.92%; under `Cc1nn(C)cc1C(=O)N1CCCn2nc(CN3CC[C@H](F)C3)cc2C1`, 6.52%; under `CC1(c2ccccc2)CCCN(C(=O)c2ccn3nnnc3c2)C1` (configuration not stated), -0.523%. In the case of `N#Cc1c(C2CCOC2)cc(-c2ccc(N3CCCCC3)cc2)nc1N` (configuration not stated), the cytotoxicity at 70.5 h is -7.42%. For `c1ccc(CN2CCN(C3CCOC4(CCOCC4)C3)CC2)nc1` (configuration not stated), the cytotoxicity at 70.5 h is -16.9%. Under `Nc1cc(C(=O)N2CCOC(Cc3cccc(C(F)(F)F)c3)C2)ccn1` (configuration not stated) stands -7.49%; under `CCn1cc(CN2CCN(Cc3cc(C)cc(C)c3)C(=O)C2)cc1C#N`, 15.6%. On to `CCOc1cccc(C(=O)N2CCC3(CC2)[C@H](O)C[C@@H]3OC)c1`, for which the cytotoxicity at 70.5 h was found to be 0.338%. The figure for `CC(C)N1CCC(CC(=O)NCc2cc(O)ncn2)CC1` is -2.08%; for `C[C@@H]1CN(Cc2cn(C)nc2-c2ccccc2F)C[C@H](C)O1` it is -11.3%; for `Cc1ccccc1C(C(=O)N(C)CCc1cn[nH]c1)N(C)C` (configuration not stated) it is -7.29%. The figure for `O=C(C1CCCC1)N1CCN(Cc2ccncc2)[C@@H]2CS(=O)(=O)C[C@@H]21` is -5.83%.

For `CCn1nc(C(C)C)cc1C(=O)NCC1CCCN(c2ccccn2)C1` (configuration not stated), the cytotoxicity at 70.5 h was -6.28%. Under `O=C(c1cnn[nH]1)N(CCCO)Cc1cccnc1` stands 1.99%. Under `Cc1cc(-n2cccn2)ccc1CN1CCC(O)(CN2CCCCC2)C1` (configuration not stated) stands 1.06%; under `Cc1noc(C)c1CCCNC(=O)C1CCN(C(=O)C2CCC2)CC1`, 5.79%; under `Cc1nc(C)c(C)c(N2CCC3(CCN(C)C3)C2)n1` (configuration not stated), -8.86%.

For `COCCC(=O)NCc1cccnc1-n1cnc2ccccc21`, the cytotoxicity at 70.5 h came out at 6.94%.

For `O=S1(=O)CCC(CNc2cc(-c3ccccc3)nc3ccnn23)C1` (configuration not stated), the cytotoxicity at 70.5 h is -9.95%.

Consider `CCSc1ccc(C(=O)N2CCC3(CCC(=O)N(C)C3)CC2)s1`, for which the cytotoxicity at 70.5 h was -9.54%. Under `CCc1nc(C)c(CC(=O)N2CCC3(CC2)OCCCC3O)c(=O)[nH]1` (configuration not stated) stands -6.44%. The figure for `CN1CCN(Cc2ccc(-c3ccc(C(N)=O)cc3)nc2)CC1` is -7.94%; for `COCCN(C)C[C@@H]1CN(C(=O)c2ccc(C)cc2)C[C@@H]1CO` it is -9.29%; for `COc1nc2c(cc1C(=O)N1CCCC1c1ccccn1)CCC2` (configuration not stated) it is 1.54%. Under `COc1ccc(NC(=O)c2ccc(CN3CC[C@H](O)C3)cc2)c(OC)n1` stands -7.69%. Regarding `COCc1ccc(C(=O)N2CCCN(Cc3ccc(F)cc3)CC2)s1`, the cytotoxicity at 70.5 h turned out to be 30.1%. Turning to `CS(=O)(=O)NCC(=O)NCc1cccnc1-n1cnc2ccccc21`, the cytotoxicity at 70.5 h is 17.2%. Under `COc1ccc(F)c(CN2CCCC(O)(CNCC(C)(C)C)C2=O)c1` (configuration not stated) stands 13.1%. Regarding `COCCC1CCCCN1C(=O)c1coc(COc2ccccc2F)n1` (configuration not stated), the cytotoxicity at 70.5 h is -1.11%. The figure for `Cc1ccc([C@@H]2CN(C(=O)CCc3ccco3)C[C@H]2N(C)C)cc1` is 0.00383%; for `CC(C)Cc1ncc2c(n1)CN(c1nccc(N(C)C)n1)C2` it is -8.35%; for `Cc1nc(N(C)C)nc(N2CCC3(CC2)CNC(=O)O3)c1C` it is -5.15%. `O=C(c1nc(=O)[nH]c2ccccc12)N1CCCC2(CCNC2)C1` (configuration not stated): the cytotoxicity at 70.5 h was found to be 8.43%. The figure for `C1CCC(c2nnc3sc(C4CCOC4)nn23)C1` (configuration not stated) is -13.4%; for `O=c1cc(C2CCNCC2)nc(Cc2cccc(Cl)c2)[nH]1` it is -5.11%. The figure for `Cc1[nH]c2ccc(CNc3cc(C(N)=O)ccn3)cc2c1C` is -0.16%; for `CC(=O)NCC(=O)N1CCCC(C(=O)c2ccc(C(C)(C)C)cc2)C1` (configuration not stated) it is -0.592%; for `CC(C)N1CCCC(C(=O)N2CCN(c3cnn(C)c(=O)c3)CC2)C1` (configuration not stated) it is -7.17%. On to `Cc1cc2ccccc2n1CCC(=O)N1CCC2(CC1)CNC(=O)C2`, for which the cytotoxicity at 70.5 h turned out to be 3.32%. Under `CS(=O)(=O)N1CC[C@]2(O)CCN(CCCC(=O)c3ccccc3)C[C@@H]2C1` stands -2.45%; under `Cc1cccc2[nH]c(-c3cn(C4CCNCC4)nn3)nc12`, -3.11%; under `O=C(NCCn1cccn1)Nc1cc(C(=O)N2CCOCC2)ccc1Cl`, -7.57%. The figure for `Cc1nnsc1CN1C[C@H]2CC[C@@H]1CN(Cc1ccccn1)C2` is -6.51%; for `Cc1csc(CN2CC[C@@](O)(C3CCOCC3)[C@H](C)C2)n1` it is -5.11%. The figure for `Cc1nccn1-c1ccccc1CNC(=O)c1cn(CCN)nn1` is 1.29%; for `Cc1ccc([C@@H]2CN(S(=O)(=O)Cc3ccccc3)C[C@H]2N(C)C)cc1` it is 1.88%; for `N#Cc1ccccc1C(=O)N1C[C@@H](CN2CCCCCC2)[C@@H](CO)C1` it is -7.65%. For the compound `Cc1ccc(C(N)=O)c(N2C[C@H]3OC(=O)N(C4CCCC4)[C@H]3C2)n1`, the cytotoxicity at 70.5 h was -11.9%.

Regarding `CSc1ccc(-c2nc(CN3CCC(CN)C3)c(C)o2)cc1` (configuration not stated), the cytotoxicity at 70.5 h was -3.18%. The figure for `CCC(Nc1nc(C(C)C)nc2c1cnn2C)c1ccc(O)cc1` (configuration not stated) is 5.5%; for `Cc1noc(CN(C)Cc2cnc(N3CCOCC3)nc2)n1` it is -6.57%.

As for `CN(C)CC(=O)N1CCc2cccc(S(=O)(=O)N3CCOCC3)c2C1`, the cytotoxicity at 70.5 h stood at 0.694%. The figure for `CN(C)Cc1nnc(C2CCN(c3ncccn3)CC2)n1C1CC1` is 12.1%. Regarding `COc1ccc(-n2c(COC(C)C)n[nH]c2=O)cc1`, the cytotoxicity at 70.5 h was -6.26%. Under `CCc1nc(CC2CN(c3ncnc4nc(C)cc(C)c34)CCO2)no1` (configuration not stated) stands -19%; under `CCNC(=O)[C@@H]1C[C@@H](N)CN1C(=O)c1[nH]c2ccccc2c1CC`, 18%; under `O=S(=O)(NC1CCCN(c2ncccn2)C1)N1CCCCCC1` (configuration not stated), -7.28%. Under `Cc1ccc(C(N)=O)c(N2Cc3cnc(C(C)(C)C)nc3C2)n1` stands -11.7%; under `O=C(O)CC1COCCN1Cc1ccccc1-c1ccccc1` (configuration not stated), 14.8%; under `O=C(C1CCCC1)N1CCC(Nc2ccncn2)CC1`, -3.92%. For the compound `Cc1nn(C)cc1Cn1c(=O)ccc2ccccc21`, the cytotoxicity at 70.5 h was -3.85%.

Take `CCc1nc(C)sc1CN1CC[C@](C)(O)[C@H](C)C1`: the cytotoxicity at 70.5 h is -2.71%. The figure for `Cc1nc[nH]c1-c1nccn1CCN1CCCC1=O` is 24.3%; for `O=C(Cn1ccnc1)N1CCCC(OCc2cccnc2)C1` (configuration not stated) it is 29.5%. Under `COCC(=O)N1CCCC(C(=O)N(C)CCn2ccnc2C)C1` (configuration not stated) stands 3.1%; under `Cc1noc(-c2ccnc(Oc3cccc(CN4CCCC4)c3F)c2)n1`, -14.1%; under `COC(=O)CCCC(=O)N(C)CC1Cc2ccccc2CN1C` (configuration not stated), -8.82%.

In the case of `COc1cc(N2C[C@@H](C)[C@](O)(C3CC3)C2)nc(N)n1`, the cytotoxicity at 70.5 h was -3.32%. Under `O=C1NCCN(C(=O)CCN2CCCO2)C1c1cccc(F)c1` (configuration not stated) stands 4.41%; under `c1ccc(CN2C[C@@H]3CC[C@H](C2)N(Cc2nnc(C4CC4)o2)C3)cc1`, -8.78%. The figure for `CN1CC2(CCN(c3nc(N)nc4c3CCNC4)CC2)OC1=O` is -8.95%. Regarding `CCOC(=O)N[C@H]1C[C@@H](C(=O)NCc2cccc(Cl)c2)N(C)C1`, the cytotoxicity at 70.5 h is -20.9%. Take `CCCC1COCCN1Cc1ccc(C(=O)O)cc1` (configuration not stated): the cytotoxicity at 70.5 h was -4.7%. Under `CC(=O)NC1CCN(c2nc(N(C)C)nc3c2CCN(C(C)=O)C3)CC1` stands -7.29%. `Cc1c[nH]c(CN2CCCCC2CCc2cccc(O)c2)c(C)c1=O` (configuration not stated): the cytotoxicity at 70.5 h is -5.58%.
